{"source": "patent US7956060B2", "about": "“Pyrimidine derivative compound” (Kyowa Hakko Kirin Co., Ltd., priority 2004, dated 2011)", "tested_on": "human acute myeloid leukemia cell line MV-4-11", "assay": "Cytostatic activity on leukemia cell line (WST-1 assay)", "type": "cell-based", "conditions": "MV-4-11 cells, test compound 10 μmol/L, 72 hours", "protocol": "The cytostatic rate (%) of a test compound on human acute myeloid leukemia cell line MV-4-11 was determined in the following manner.\nEach cell was cultured using Roswell Park Memorial Institute's Medium (RPMI) 1640 (Gibco, Catalog No. 11875-093) containing 10% fetal bovine serum (Gibco, Catalog. No. 10437-028) and 1% penicillin/streptomycin (1:1) (Gibco, Catalog No. 15140-122). Each 80 μL of the MV-4-11 cell having a concentration of 7.5×10^4 cells/mL (or K562 cell having a concentration of 2.5×10^4 cells/mL) was inoculated to wells of a TC MICROWELL 96U plate (Nalge Nunc International, Catalog No. 163320) and was cultured in a 5% carbon dioxide gas incubator at 37° C. for 4 hours. As a blank, only RPMI medium (80 μL) was added to a well. […] Then, the absorbances at 450 nm (reference wavelength: 690 nm) were determined with a microplate spectrophotometer SPECTRA max 340PC (Molecular Devices Corporation). The relative growth (%) of a well to which the test compound had been added was determined while setting the absorbance of a well to which not the test compound but DMSO alone had been added (control) at 100% and that of a well containing RPMI medium alone at 0%. The cytostatic rate (%) of the test compound was determined by subtracting the calculated relative growth from 100."}
{"smiles": "CCNc1nc(NCCc2ccncc2)ncc1-c1nnc(CN2CCN(C)CC2)o1", "note": "[Compound 4-32]", "values": [{"measurement": "cytostatic rate MV-4-11 (%, 10 μmol/L)", "result": 99, "unit": "%"}]}
